In patent US20100144755A1 (Glaxo Group Limited, priority 2006, published 2010):
Structures can show the parent of a compound that is named as a salt.

Key:
[1] = tested on: influx of neutrophils to the lung in LPS-challenged rats; test: Rat LPS neutrophilia model; format: in vivo; details: LPS aerosol, intratracheal dosing, in at least one of the range of conditions tested, significance p<0.05
Summary of the method: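 Compound given intratracheally (200 ul suspension or dry powder via microsprayer) to isoflurane-anesthetized rats 15 min–24 h before 15 min LPS aerosol (100 ug/ml). Lavage 4 h post-challenge; neutrophils from differential counts. % inhibition versus no-compound controls at a given concentration and pretreat time.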

[2] = tested on: TNF-stimulated IL8 production by human neutrophils; test: TNF-stimulated IL-8 production from human neutrophils; format: cell-based; details: Neutrophil, TNF 100 ng/ml, about 20 hrs, bounds reflect the top concentration screened, for 202(c) and 120 a range over multiple runs with ends given as 'greater than';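 note: IL-8 in cell-free supernatant quantified by sandwich ELISA, inhibition calculated against a compound-free control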
Description: TNF-Stimulated IL-8 Production from Human Neutrophils
The effect of test compounds on TNF-stimulated IL8 production by human neutrophils is measured as follows. Neutrophils are prepared from blood obtained from consenting donors, using standard methods. Blood is collected in heparinized syringes and layered over histopaque (30 ml/20 ml). Following centrifugation, the red cell pellet is resuspended in PBS and purified over a dextran gradient. […] Cells are added (0.5-1 ml) to 48 well plates already containing compound at 1000× final concentration in neat DMSO or 10% DMSO in RPMI1640 with 10% FBS. TNF (final concentration 100 ng/ml) is used as the stimulus. Cells incubated for approximately 20 hrs at 37° C., 5% CO2. Levels of IL-8 in the cell free supernatant are determined by sandwich ELISA, and inhibition relative to a control with DMPO but no compound is calculated.

Compound	inhibition of neutrophilia [1]	melting point	IC50 [2] [nM]
Cc1ccc(NC(=O)c2ccsc2)cc1-c1nc(N2CCC(N)CC2)nc2c1ccc(=O)n2-c1c(F)cccc1F [Example 32, N-{3-[2-(4-amino-1-piperidinyl)-8-(2,6-difluorophenyl)-7-oxo-7,8-dihydropyrido[2,3-d]pyrimidin-4-yl]-4-methylphenyl}-3-thiophenecarboxamide]	statistically nonsignificant inhibition	183.8 to 187.9 °C	
Cc1ccc(C(=O)NC2CC2)cc1-c1nc(NCCN(C)C)nc2c1ccc(=O)n2-c1c(F)cccc1F [Example 25]	statistically nonsignificant inhibition	214.7 to 217.5 °C	
CCCNCCNc1nc(-c2cc(C(=O)NC3CC3)ccc2C)c2ccc(=O)n(-c3c(F)cccc3F)c2n1 [Example 24, N-cyclopropyl-3-(8-(2,6-difluorophenyl)-7-oxo-2-{[2-(propylamino)ethyl]amino}-7,8-dihydropyrido[2,3-d]pyrimidin-4-yl)-4-methylbenzamide]	statistically nonsignificant inhibition	120 to 134 °C	
Cc1ccc(C(=O)NC2CC2)cc1-c1nc(NC2CC(C)(C)NC(C)(C)C2)nc2c1ccc(=O)n2-c1c(F)cccc1F [21(c)]		326.3 to 327.9 °C	
CCN(CC)CCCNc1nc(-c2cc(C(=O)N[C@H](C)C(C)C)ccc2C)c2ccc(=O)n(-c3c(F)cccc3F)c2n1 [Example 130, 3-[2-{[3-(diethylamino)propyl]amino}-8-(2,6-difluorophenyl)-7-oxo-7,8-dihydropyrido[2,3-d]pyrimidin-4-yl]-N-[(1R)-1,2-dimethylpropyl]-4-methylbenzamide]	statistically nonsignificant inhibition		> 10
CCCNC(=O)c1ccc(C)c(-c2nc(NCCN(C)C)nc3c2ccc(=O)n3-c2c(F)cccc2F)c1 [Example 105, 3-(8-(2,6-difluorophenyl)-2-{[2-(dimethylamino)ethyl]amino}-7-oxo-7,8-dihydropyrido[2,3-d]pyrimidin-4-yl)-4-methyl-N-propylbenzamide]	statistically significant inhibition	139 to 142 °C	
CCCNC(=O)c1ccc(C)c(-c2nc(N(C)CCCN(C)C)nc3c2ccc(=O)n3-c2c(F)cccc2F)c1 [Example 104, 3-{8-(2,6-difluorophenyl)-2-[[3-(dimethylamino)propyl](methyl)amino]-7-oxo-7,8-dihydropyrido[2,3-d]pyrimidin-4-yl}-4-methyl-N-propylbenzamide]	statistically significant inhibition	104 to 109 °C	
Cc1ccc(C(=O)O)cc1-c1nc(NC(CO)CO)nc2c1ccc(=O)n2-c1c(F)cccc1F [80(a), 3-(8-(2,6-difluorophenyl)-2-{[2-hydroxy-1-(hydroxymethyl)-ethyl]amino}-7-oxo-7,8-dihydropyrido[2,3-d]pyrimidin-4-yl)-4-methylbenzoic acid]			> 100
Cc1ccc(NC(=O)c2cccs2)cc1-c1nc(NC2CCNCC2)nc2c1ccc(=O)n2-c1c(F)cccc1F [7(d), N-{3-[8-(2,6-difluorophenyl)-7-oxo-2-(4-piperidinylamino)-7,8-dihydropyrido[2,3-d]pyrimidin-4-yl]-4-methylphenyl}-2-thiophenecarboxamide]			> 100
Cc1ccc(NC(=O)c2cn(C)cn2)cc1-c1nc(NC(CO)CO)nc2c1ccc(=O)n2-c1c(F)cccc1F [Example 51, N-[3-(2,6-difluorophenyl)-2-{[2-hydroxy-1-(hydroxymethyl)ethyl]amino}-7-oxo-7,8-dihydropyrido[2,3-d]pyrimidin-4-yl)-4-methylphenyl]-1-methyl-1H-imidazole-4-carboxamide trifluoroacetate]			> 100
CCN(CC)CCCNc1nc(-c2cc(C(=O)N[C@@H](C)C(C)C)ccc2C)c2ccc(=O)n(-c3c(F)cccc3F)c2n1 [Example 131, 3-[2-{[3-(diethylamino)propyl]amino}-8-(2,6-difluorophenyl)-7-oxo-7,8-dihydropyrido[2,3-d]pyrimidin-4-yl]-N-[(1S)-1,2-dimethylpropyl]-4-methylbenzamide]			> 10
Cc1c(F)cc(C(=O)NC2CC2)cc1-c1nc(NC(CO)CO)nc2c1ccc(=O)n2-c1c(F)cccc1F [18(e), N-cyclopropyl-3-(8-(2,6-difluorophenyl)-2-{[2-hydroxy-1-(hydroxymethyl)ethyl]amino}-7-oxo-7,8-dihydropyrido[2,3-d]pyrimidin-4-yl)-5-fluoro-4-methylbenzamide]		214.2 to 217.5 °C	
CCCNC(=O)c1ccc(C)c(-c2nc(NCCN(C)C(=O)OC(C)(C)C)nc3c2ccc(=O)n3-c2c(F)cccc2F)c1 [Example 106, 1,1-dimethylethyl{2-[(8-(2,6-difluorophenyl)-4-{2-methyl-5-[(propylamino)carbonyl]phenyl}-7-oxo-7,8-dihydropyrido[2,3-d]pyrimidin-2-yl)amino]ethyl}methylcarbamate]		115 to 118 °C	
Cc1ccc(NC(=O)c2cccs2)cc1-c1nc(NCc2ncc[nH]2)nc2c1ccc(=O)n2-c1c(F)cccc1F [Example 10, N-(3-{8-(2,6-difluorophenyl)-2-[(1H-imidazol-2-ylmethyl)amino]-7-oxo-7,8-dihydropyrido[2,3-d]pyrimidin-4-yl}-4-methylphenyl)-2-thiophenecarboxamide]			> 100
Cc1ccc(C(=O)NCc2ccccc2)cc1-c1nc(NCc2ncc[nH]2)nc2c1ccc(=O)n2-c1c(F)cccc1F [116(c), 3-{8-(2,6-difluorophenyl)-2-[(1H-imidazol-2-ylmethyl)amino]-7-oxo-7,8-dihydropyrido[2,3-d]pyrimidin-4-yl}-4-methyl-N-(phenylmethyl)benzamide]		185 to 190 °C (dec.)	
CCN(CC)CCCNc1nc(-c2cccc(C(=O)NCC#N)c2C)c2ccc(=O)n(-c3c(F)cccc3F)c2n1 [Example 156, N-(cyanomethyl)-3-[2-{[3-(diethylamino)propyl]amino}-8-(2,6-difluorophenyl)-7-oxo-7,8-dihydropyrido[2,3-d]pyrimidin-4-yl]-2-methylbenzamide]			> 100
Cc1ccc(C(=O)NCC(C)(C)C)cc1-c1nc(N2CCC(N3CCC(C)CC3)CC2)nc2c1ccc(=O)n2-c1c(F)cccc1F [Example 171, 3-[8-(2,6-difluorophenyl)-2-(4-methyl-1,4′-bipiperidin-1′-yl)-7-oxo-7,8-dihydropyrido[2,3-d]pyrimidin-4-yl]-N-(2,2-dimethylpropyl)-4-methylbenzamide]			> 100
CCN(CC)CCCNc1nc(-c2ccc(C(=O)Nc3nccs3)cc2)c2ccc(=O)n(-c3c(F)cccc3F)c2n1 [Example 192, 4-[2-{[3-(diethylamino)propyl]amino}-8-(2,6-difluorophenyl)-7-oxo-7,8-dihydropyrido[2,3-d]pyrimidin-4-yl]-N-1,3-thiazol-2-ylbenzamide]			> 100
Cc1ccc(NC(=O)c2ccc(Cl)nc2)cc1-c1nc(NCc2ncc[nH]2)nc2c1ccc(=O)n2-c1c(F)cccc1F [Example 17, 6-chloro-N-(3-{8-(2,6-difluorophenyl)-2-[(1H-imidazol-2-ylmethyl)amino]-7-oxo-7,8-dihydropyrido[2,3-d]pyrimidin-4-yl}-4-methylphenyl)-3-pyridinecarboxamide]			> 100
CCN(CC)CCCNc1nc(-c2cccc(C(=O)O)c2)c2ccc(=O)n(-c3c(F)cccc3F)c2n1 [193(a), 3-[2-{[3-(diethylamino)propyl]amino}-8-(2,6-difluorophenyl)-7-oxo-7,8-dihydropyrido[2,3-d]pyrimidin-4-yl]benzoic acid]			> 100
Cc1ccc(NC(=O)c2cccs2)cc1-c1nc(S(C)(=O)=O)nc2c1ccc(=O)n2-c1c(F)cccc1F [7(c), N-{3-[8-(2,6-difluorophenyl)-2-(methylsulfonyl)-7-oxo-7,8-dihydropyrido[2,3-d]pyrimidin-4-yl]-4-methylphenyl}-2-thiophenecarboxamide]			> 100
Cc1ccc(NC(=O)c2ccc(Cl)nc2)cc1-c1nc(NC2CCNCC2)nc2c1ccc(=O)n2-c1c(F)cccc1F [14(c), 6-chloro-N-{3-[8-(2,6-difluorophenyl)-7-oxo-2-(4-piperidinylamino)-7,8-dihydropyrido[2,3-d]pyrimidin-4-yl]-4-methylphenyl}-3-pyridinecarboxamide]			> 100
